According to US7928098B2, “Therapeutic and/or preventive agents for a sleep disorder” (Kyowa Hakko Kirin Co., Ltd., priority 2005, dated 2011):

| SMILES | melting point |
| --- | --- |
| COc1cccc(C(=O)Nc2nc(-c3ccco3)c(C(=O)C3CCOCC3)s2)c1OC [Compound 388, N-[4-(2-Furyl)-5-(tetrahydropyran-4-ylcarbonyl)thiazol-2-yl]-2,3-dimethoxybenzamide] | 198 to 200 °C |
| Cc1ccccc1C(=O)Nc1nc(-c2ccco2)c(C(=O)C2CCOCC2)s1 [Compound 363, N-[4-(2-Furyl)-5-(tetrahydropyran-4-ylcarbonyl)thiazol-2-yl]-2-methylbenzamide] | 204 to 206 °C |
| O=C(CCc1ccccc1)Nc1nc(-c2ccco2)c(C(=O)C2CCOCC2)s1 [Compound 432, N-[4-(2-Furyl)-5-(tetrahydropyran-4-ylcarbonyl)thiazol-2-yl]-3-phenylpropanamide] | 161 to 164 °C |
| CCn1cc(C(=O)Nc2nc(-c3ccco3)c(C(=O)c3ccccc3)s2)ccc1=O [Compound 59, N-[5-Benzoyl-4-(2-furyl)thiazol-2-yl]-1-ethyl-2-oxo-1,2-dihydropyridine-5-carboxamide] | 109 to 114 °C |
| O=C(Nc1nc(-c2ccco2)c(C(=O)C2CCOCC2)s1)c1cccc(F)c1F [Compound 394, 2,3-Difluoro-N-[4-(2-furyl)-5-(tetrahydropyran-4-ylcarbonyl)thiazol-2-yl]benzamide] | 154 to 160 °C |
| O=C(C=Cc1ccccc1)Nc1nc(-c2ccco2)c(C(=O)C2CCOCC2)s1 [Compound 433, N-[4-(2-Furyl)-5-(tetrahydropyran-4-ylcarbonyl)thiazol-2-yl]-3-phenylacrylamide] | 253 to 256 °C |
| CC1(O)CCN(CC(=O)Nc2nc(-c3ccco3)c(C(=O)C3CCOCC3)s2)CC1 [Compound 451, N-[4-(2-Furyl)-5-(tetrahydropyran-4-ylcarbonyl)thiazol-2-yl]-2-(4-hydroxy-4-methylpiperidino)acetamide] | 151 to 153 °C |
| O=C(Nc1nc(-c2ccco2)c(C(=O)c2nccs2)s1)c1ccncc1 [Compound 255, N-[4-(2-Furyl)-5-(thiazol-2-ylcarbonyl)thiazol-2-yl]pyridine-4-carboxamide] | 228 to 240 °C |
| COCC(=O)c1sc(NC(=O)c2ccc(F)cc2)nc1-c1ccco1 [Compound 311, 4-Fluoro-N-[4-(2-furyl)-5-(methoxyacetyl)thiazol-2-yl]benzamide] | 166 to 167 °C |
| Cc1nc(C(=O)c2sc(NC(=O)c3ccncc3)nc2-c2ccco2)sc1C [Compound 258, N-[5-(4,5-Dimethylthiazol-2-ylcarbonyl)-4-(2-furyl)thiazol-2-yl]pyridine-4-carboxamide] | 270 to 272 °C (dec.) |
| CCCC(=O)c1sc(NC(=O)c2ccco2)nc1-c1ccco1 [Compound 293, N-[5-Butyryl-4-(2-furyl)thiazol-2-yl]furan-2-carboxamide] | 172 to 176 °C |
| COc1cccc(C(=O)Nc2nc(-c3ccco3)c(C(=O)C3CCC(=O)CC3)s2)c1 [Compound 356, N-[4-(2-Furyl)-5-(4-oxocyclohexylcarbonyl)thiazol-2-yl]-3-methoxybenzamide] | 176 to 183 °C |
| COc1ccccc1C(=O)Nc1nc(-c2ccco2)c(C(=O)C2CCOCC2)s1 [Compound 366, N-[4-(2-Furyl)-5-(tetrahydropyran-4-ylcarbonyl)thiazol-2-yl]-2-methoxybenzamide] | 181 to 184 °C |
| O=C(Nc1nc(-c2ccco2)c(C(=O)c2ccn(Cc3ccccc3)c2)s1)c1ccncc1 [Compound 263, N-[5-(1-Benzylpyrrol-3-ylcarbonyl)-4-(2-furyl)thiazol-2-yl]pyridine-4-carboxamide] | 175 to 178 °C |
| COc1cc(OC)cc(C(=O)Nc2nc(-c3ccco3)c(C(=O)C3CCOCC3)s2)c1 [Compound 393, N-[4-(2-Furyl)-5-(tetrahydropyran-4-ylcarbonyl)thiazol-2-yl]-3,5-dimethoxybenzamide] | 278 to 280 °C |
| COC[C@H]1CCCN1CC(=O)Nc1nc(-c2ccco2)c(C(=O)C2CCOCC2)s1 [Compound 442, N-[4-(2-Furyl)-5-(tetrahydropyran-4-ylcarbonyl)thiazol-2-yl]-2-[(2R)-2-(methoxymethyl)pyrrolidin-1-yl]acetamide] | 103 to 104 °C |
| COC1(CN2CCN(CC(=O)Nc3nc(-c4ccco4)c(C(=O)C4CCOCC4)s3)CC2)CC1 [Compound 472, N-[4-(2-Furyl)-5-(tetrahydropyran-4-ylcarbonyl)thiazol-2-yl]-2-{4-[(1-methoxycyclopropyl)methyl]piperazin-1-yl}acetamide] | 155 to 157 °C |
| O=C(Nc1nc(-c2ccco2)c(C(=O)C2CCC2)s1)c1ccncc1 [Compound 330, N-[5-(Cyclobutylcarbonyl)-4-(2-furyl)thiazol-2-yl]pyridine-4-carboxamide] | 227 to 235 °C (dec.) |
| Cn1c(-c2sc(NC(=O)c3ccccc3)nc2-c2ccco2)cc2ccccc21 [Compound 36, N-[4-(2-Furyl)-5-(1-methylindol-2-yl)thiazol-2-yl]benzamide] | 195 to 196 °C |
| O=C(Nc1nc(-c2ccco2)c(C(=O)C2CCCCC2)s1)c1ccncc1 [Compound 344, N-[5-(Cyclohexylcarbonyl)-4-(2-furyl)thiazol-2-yl]pyridine-4-carboxamide] | 197 to 199 °C |
| O=C(Nc1nc(-c2ccco2)c(C(=O)C2CCOCC2)s1)c1cnn(-c2ccccc2)c1 [Compound 426, N-[4-(2-Furyl)-5-(tetrahydropyran-4-ylcarbonyl)thiazol-2-yl]-1-phenylpyrazole-4-carboxamide] | 217 to 220 °C |
| O=C(c1cccnc1)c1sc(NC(=O)C2CC2)nc1-c1ccco1 [Compound 212, N-[4-(2-Furyl)-5-(pyridin-3-ylcarbonyl)thiazol-2-yl]cyclopropanecarboxamide] | 231 to 233 °C |

Continued, values first:

| melting point | SMILES |
| --- | --- |
| 204 to 206 °C | CC(=O)c1ccc(C(=O)Nc2nc(-c3ccco3)c(C(=O)c3ccccn3)s2)cc1 [Compound 116, 4-Acetyl-N-[4-(2-furyl)-5-(pyridin-2-ylcarbonyl)thiazol-2-yl]benzamide] |
| 243 to 255 °C (dec.) | Cn1ccc(C(=O)c2sc(NC(=O)c3ccncc3)nc2-c2ccco2)cc1=O [Compound 274, N-[4-(2-Furyl)-5-(1-methyl-2-oxo-1,2-dihydropyridin-4-ylcarbonyl)thiazol-2-yl]pyridine-4-carboxamide] |
| > 300 °C | O=C(Nc1nc(-c2ccco2)c(C(=O)c2cnccn2)s1)c1ccncc1 [Compound 281, N-[4-(2-Furyl)-5-(pyrazin-2-ylcarbonyl)thiazol-2-yl]pyridine-4-carboxamide] |
| 222 to 225 °C | CN1CCC(OC(=O)Nc2nc(-c3ccco3)c(C(=O)c3ccccn3)s2)CC1 [Compound 162, 1-Methylpiperidine-4-yl N-[4-(2-furyl)-5-(pyridin-2-ylcarbonyl)thiazol-2-yl]carbamate] |
| 259 to 262 °C | O=C(Nc1nc(-c2ccco2)c(C(=O)c2ccccn2)s1)c1cncc(Br)c1 [Compound 134, 5-Bromo-N-[4-(2-furyl)-5-(pyridin-2-ylcarbonyl)thiazol-2-yl]pyridine-3-carboxamide] |
| 174 to 176 °C | Cc1ccoc1C(=O)Nc1nc(-c2ccco2)c(C(=O)c2ccccn2)s1 [Compound 145, N-[4-(2-Furyl)-5-(pyridin-2-ylcarbonyl)thiazol-2-yl]-3-methylfuran-2-carboxamide] |
| 269 to 270 °C | O=C(Nc1nc(-c2ccco2)c(C(=O)c2ccccn2)s1)c1ccn(Cc2ccccc2)c(=O)c1 [Compound 140, 1-Benzyl-N-[4-(2-furyl)-5-(pyridin-2-ylcarbonyl)thiazol-2-yl]-2-oxo-1,2-dihydropyridine-4-carboxamide] |
| 245 to 248 °C | O=C(Nc1nc(-c2ccco2)c(C(=O)c2ccco2)s1)c1ccncc1 [Compound 249, N-[4-(Furan-2-yl)-5-(furan-2-ylcarbonyl)thiazol-2-yl]pyridine-4-carboxamide] |
| 208 to 210 °C | O=C(Nc1nc(-c2ccco2)c(C(=O)c2cccs2)s1)c1ccncc1 [Compound 254, N-[4-(2-Furyl)-5-(thiophen-2-ylcarbonyl)thiazol-2-yl]-pyridine-4-carboxamide] |
| 152 to 153 °C | O=C(Nc1nc(-c2ccco2)c(C(=O)c2ccccn2)s1)OC1CCC1 [Compound 159, Cyclobutyl N-[4-(2-furyl)-5-(pyridin-2-ylcarbonyl)thiazol-2-yl]carbamate] |
| 186 to 187 °C | Cc1ncccc1C(=O)Nc1nc(-c2ccco2)c(C(=O)c2ccccn2)s1 [Compound 129, N-[4-(2-Furyl)-5-(pyridin-2-ylcarbonyl)thiazol-2-yl]-2-methylpyridine-3-carboxamide] |
| 188 to 191 °C | C[C@@H]1CN(CC(=O)Nc2nc(-c3ccco3)c(C(=O)c3ccccn3)s2)C[C@H](C)O1 [Compound 173, 2-(cis-2,6-Dimethylmorpholino)-N-[4-(2-furyl)-5-(pyridin-2-ylcarbonyl)thiazol-2-yl]acetamide] |
| 213 to 218 °C | O=C(Nc1nc(-c2ccco2)c(C(=O)c2ccccn2)s1)c1ccc2snnc2c1 [Compound 152, N-[4-(2-Furyl)-5-(pyridin-2-ylcarbonyl)thiazol-2-yl]-1,2,3-benzothiadiazole-5-carboxamide] |
| 211 to 212 °C | O=C(Nc1nc(-c2ccco2)c(C(=O)c2ccccn2)s1)c1ccc(Br)o1 [Compound 143, 5-Bromo-N-[4-(2-furyl)-5-(pyridin-2-ylcarbonyl)thiazol-2-yl]furan-2-carboxamide] |
| 148 to 149 °C | O=C(CN1CCSCC1)Nc1nc(-c2ccco2)c(C(=O)c2ccccn2)s1 [Compound 190, N-[4-(2-Furyl)-5-(pyridin-2-ylcarbonyl)thiazol-2-yl]-2-thiomorpholinoacetamide] |
| 189 to 191 °C | O=C(Nc1nc(-c2ccco2)c(C(=O)c2ccccn2)s1)c1ccc2c(c1)OCCO2 [Compound 118, N-[4-(2-Furyl)-5-(pyridin-2-ylcarbonyl)thiazol-2-yl]-1,4-benzodioxane-6-carboxamide] |
| 216 to 217 °C | O=C(Nc1nc(-c2ccco2)c(C(=O)c2ccccn2)s1)c1ccnc(N2CCOCC2)c1 [Compound 127, N-[4-(2-Furyl)-5-(pyridin-2-ylcarbonyl)thiazol-2-yl]-2-morpholinopyridine-4-carboxamide] |
